The values that follow are results of earlier work, collected in PMC9851200, “Multiparameter phenotypic screening for endogenous TFEB and TFE3 translocation identifies novel chemical series modulating lysosome function” (Autophagy, 2022).

Holding throughout (design): method as in original PKIS2 published data
For data set [1], the target named is kinases (KINOMEscan panel) (Homo sapiens, UniProt Q16513). The settings on record: kinase PKN2; Published KINOMEscan; ref original PKIS2 published data; cited from earlier work.
Chain of kinases (KINOMEscan panel) (Homo sapiens, UniProt Q16513) (Q16513 whole entry): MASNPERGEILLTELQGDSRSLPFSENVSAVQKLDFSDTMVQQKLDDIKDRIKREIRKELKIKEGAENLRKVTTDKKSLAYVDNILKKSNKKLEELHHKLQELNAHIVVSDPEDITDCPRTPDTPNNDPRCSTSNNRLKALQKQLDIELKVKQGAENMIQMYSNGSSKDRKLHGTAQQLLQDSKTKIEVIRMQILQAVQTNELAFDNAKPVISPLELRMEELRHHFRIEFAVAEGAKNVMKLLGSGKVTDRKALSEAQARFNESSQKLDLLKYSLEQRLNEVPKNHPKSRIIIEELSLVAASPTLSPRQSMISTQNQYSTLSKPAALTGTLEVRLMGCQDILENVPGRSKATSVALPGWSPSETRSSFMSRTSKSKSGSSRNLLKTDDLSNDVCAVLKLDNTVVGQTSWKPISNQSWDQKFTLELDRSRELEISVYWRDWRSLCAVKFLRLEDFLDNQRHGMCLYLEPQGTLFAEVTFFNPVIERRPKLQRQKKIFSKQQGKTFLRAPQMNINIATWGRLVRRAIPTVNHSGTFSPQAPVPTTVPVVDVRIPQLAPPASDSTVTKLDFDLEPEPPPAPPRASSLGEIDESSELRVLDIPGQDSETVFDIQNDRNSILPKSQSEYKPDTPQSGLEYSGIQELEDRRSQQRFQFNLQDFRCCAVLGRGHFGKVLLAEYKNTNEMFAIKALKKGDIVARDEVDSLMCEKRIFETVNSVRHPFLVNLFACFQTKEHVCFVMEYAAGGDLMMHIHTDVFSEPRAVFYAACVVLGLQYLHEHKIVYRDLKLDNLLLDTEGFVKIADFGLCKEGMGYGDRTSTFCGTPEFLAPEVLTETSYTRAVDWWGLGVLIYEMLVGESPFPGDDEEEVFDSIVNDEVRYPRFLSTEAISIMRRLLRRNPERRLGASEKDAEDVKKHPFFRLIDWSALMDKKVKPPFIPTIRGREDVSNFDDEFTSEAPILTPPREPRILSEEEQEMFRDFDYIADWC
In data set [2] the target is kinases (KINOMEscan panel) (Homo sapiens, UniProt P08069). The settings on record: kinase IGF1R; Published KINOMEscan; ref original PKIS2 published data; cited from earlier work.
Chain of kinases (KINOMEscan panel) (Homo sapiens, UniProt P08069) (P08069 31-1367): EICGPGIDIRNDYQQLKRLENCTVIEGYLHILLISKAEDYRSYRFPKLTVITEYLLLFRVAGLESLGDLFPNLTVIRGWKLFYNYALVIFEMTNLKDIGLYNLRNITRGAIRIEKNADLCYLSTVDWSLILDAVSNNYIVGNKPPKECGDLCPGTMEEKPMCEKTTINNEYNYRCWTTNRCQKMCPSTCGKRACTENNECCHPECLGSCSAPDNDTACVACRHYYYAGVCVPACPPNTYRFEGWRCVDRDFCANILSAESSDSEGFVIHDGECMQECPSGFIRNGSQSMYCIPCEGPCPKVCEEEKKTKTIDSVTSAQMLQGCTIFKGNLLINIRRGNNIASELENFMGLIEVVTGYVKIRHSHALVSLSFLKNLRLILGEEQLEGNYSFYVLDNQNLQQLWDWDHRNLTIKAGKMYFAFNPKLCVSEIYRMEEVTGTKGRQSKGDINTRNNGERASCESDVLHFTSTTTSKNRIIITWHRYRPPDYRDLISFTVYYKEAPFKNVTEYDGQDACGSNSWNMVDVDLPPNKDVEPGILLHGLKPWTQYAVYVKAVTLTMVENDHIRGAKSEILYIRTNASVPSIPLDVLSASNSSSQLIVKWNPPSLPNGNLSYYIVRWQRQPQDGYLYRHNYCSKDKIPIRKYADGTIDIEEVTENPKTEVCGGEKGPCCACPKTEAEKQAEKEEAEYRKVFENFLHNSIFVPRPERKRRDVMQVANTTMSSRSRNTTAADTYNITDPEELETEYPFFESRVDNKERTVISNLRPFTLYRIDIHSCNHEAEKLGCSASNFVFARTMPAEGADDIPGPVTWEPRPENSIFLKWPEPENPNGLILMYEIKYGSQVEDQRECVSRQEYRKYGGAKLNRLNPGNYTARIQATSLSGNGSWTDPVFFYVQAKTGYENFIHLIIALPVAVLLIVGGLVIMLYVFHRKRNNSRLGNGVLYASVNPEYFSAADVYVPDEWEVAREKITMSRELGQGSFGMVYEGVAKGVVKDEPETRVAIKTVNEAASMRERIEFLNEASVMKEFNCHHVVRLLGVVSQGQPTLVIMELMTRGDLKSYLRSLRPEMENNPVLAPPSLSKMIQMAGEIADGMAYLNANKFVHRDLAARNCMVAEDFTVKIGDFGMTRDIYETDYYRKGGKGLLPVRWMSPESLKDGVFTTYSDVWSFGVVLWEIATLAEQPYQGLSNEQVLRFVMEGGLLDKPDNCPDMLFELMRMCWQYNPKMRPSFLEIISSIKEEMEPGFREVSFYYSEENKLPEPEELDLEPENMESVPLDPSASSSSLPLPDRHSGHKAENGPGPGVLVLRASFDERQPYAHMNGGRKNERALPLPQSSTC
For data set [3], the target named is kinases (KINOMEscan panel) (Homo sapiens, UniProt Q52WX2). The note with it: SBK1; Published KINOMEscan; ref original PKIS2 published data; cited from earlier work.
Chain of kinases (KINOMEscan panel) (Homo sapiens, UniProt Q52WX2) (Q52WX2 whole entry): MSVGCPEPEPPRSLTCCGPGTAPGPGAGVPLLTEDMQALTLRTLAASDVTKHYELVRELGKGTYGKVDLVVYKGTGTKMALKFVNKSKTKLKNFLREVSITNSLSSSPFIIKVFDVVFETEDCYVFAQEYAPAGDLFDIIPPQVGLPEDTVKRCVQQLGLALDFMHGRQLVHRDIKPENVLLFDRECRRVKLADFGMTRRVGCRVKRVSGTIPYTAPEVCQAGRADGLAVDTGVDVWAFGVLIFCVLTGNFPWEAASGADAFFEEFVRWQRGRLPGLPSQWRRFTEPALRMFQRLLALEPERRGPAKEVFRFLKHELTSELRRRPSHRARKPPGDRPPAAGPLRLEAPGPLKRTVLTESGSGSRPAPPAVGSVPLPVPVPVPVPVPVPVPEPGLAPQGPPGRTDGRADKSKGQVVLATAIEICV
Data set [4] deals with kinases (KINOMEscan panel) (Homo sapiens, UniProt Q8NI60). The settings on record: COQ8A; Published KINOMEscan; ref original PKIS2 published data; cited from earlier work.
Chain of kinases (KINOMEscan panel) (Homo sapiens, UniProt Q8NI60) (Q8NI60 163-647): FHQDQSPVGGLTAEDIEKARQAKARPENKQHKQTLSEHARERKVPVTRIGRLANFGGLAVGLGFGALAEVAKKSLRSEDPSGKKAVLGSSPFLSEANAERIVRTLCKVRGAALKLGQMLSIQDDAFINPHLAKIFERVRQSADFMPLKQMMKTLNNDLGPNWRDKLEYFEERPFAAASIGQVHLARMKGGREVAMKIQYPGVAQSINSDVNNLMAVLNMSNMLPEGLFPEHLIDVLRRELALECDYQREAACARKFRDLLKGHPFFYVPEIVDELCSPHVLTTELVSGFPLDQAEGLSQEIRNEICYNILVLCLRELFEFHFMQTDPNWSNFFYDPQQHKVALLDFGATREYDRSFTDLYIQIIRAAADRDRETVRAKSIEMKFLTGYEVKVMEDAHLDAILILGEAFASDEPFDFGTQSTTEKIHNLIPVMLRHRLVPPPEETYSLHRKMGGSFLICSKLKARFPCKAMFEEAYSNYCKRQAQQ
The target of data set [5] is T1, kinases (KINOMEscan panel) (Homo sapiens, UniProt Q99640).
T1 sequence (Q99640 1-499): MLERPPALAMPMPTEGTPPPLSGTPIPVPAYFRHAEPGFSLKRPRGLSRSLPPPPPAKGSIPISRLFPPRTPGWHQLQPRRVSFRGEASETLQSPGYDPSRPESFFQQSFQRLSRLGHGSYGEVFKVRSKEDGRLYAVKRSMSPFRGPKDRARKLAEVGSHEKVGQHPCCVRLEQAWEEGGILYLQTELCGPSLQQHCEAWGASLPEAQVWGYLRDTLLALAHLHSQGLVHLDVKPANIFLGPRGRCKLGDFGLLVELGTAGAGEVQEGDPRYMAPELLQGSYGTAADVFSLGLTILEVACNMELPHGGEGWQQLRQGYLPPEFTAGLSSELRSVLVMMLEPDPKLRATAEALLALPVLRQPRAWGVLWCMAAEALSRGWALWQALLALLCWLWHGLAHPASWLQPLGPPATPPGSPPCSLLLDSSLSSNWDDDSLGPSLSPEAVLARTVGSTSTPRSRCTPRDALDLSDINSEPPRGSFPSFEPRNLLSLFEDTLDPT
The note with it: kinase PKMYT1; Published KINOMEscan; ref original PKIS2 published data; cited from earlier work.

The target in data set [6] is T2, kinases (KINOMEscan panel) (Homo sapiens, UniProt Q8NE63).
T2 sequence (Q8NE63 1-616): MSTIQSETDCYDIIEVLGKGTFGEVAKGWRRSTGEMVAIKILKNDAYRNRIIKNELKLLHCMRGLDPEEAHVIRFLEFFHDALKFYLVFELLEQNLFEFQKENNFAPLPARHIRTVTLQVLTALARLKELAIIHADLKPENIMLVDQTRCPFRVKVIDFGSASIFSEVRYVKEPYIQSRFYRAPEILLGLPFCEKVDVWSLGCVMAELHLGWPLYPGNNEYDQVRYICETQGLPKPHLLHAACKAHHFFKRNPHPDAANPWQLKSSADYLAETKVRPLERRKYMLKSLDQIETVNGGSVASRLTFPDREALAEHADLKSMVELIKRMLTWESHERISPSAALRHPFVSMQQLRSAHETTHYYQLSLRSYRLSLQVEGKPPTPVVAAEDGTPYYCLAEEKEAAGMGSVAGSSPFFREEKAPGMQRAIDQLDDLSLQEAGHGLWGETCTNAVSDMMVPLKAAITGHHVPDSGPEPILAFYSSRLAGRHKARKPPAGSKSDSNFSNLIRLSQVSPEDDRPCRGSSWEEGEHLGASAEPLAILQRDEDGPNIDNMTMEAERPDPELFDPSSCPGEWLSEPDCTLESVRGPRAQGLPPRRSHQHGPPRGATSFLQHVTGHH
The settings on record: kinase HIPK4; Published KINOMEscan; ref original PKIS2 published data; cited from earlier work.

Data set [7] deals with kinases (KINOMEscan panel) (Homo sapiens, UniProt P14616). The settings on record: INSRR; Published KINOMEscan; ref original PKIS2 published data; cited from earlier work.
In data set [8] the target is kinases (KINOMEscan panel) (Homo sapiens, UniProt Q00532). The settings on record: CDKL1; Published KINOMEscan; ref original PKIS2 published data; cited from earlier work.
Chain of kinases (KINOMEscan panel) (Homo sapiens, UniProt Q00532) (Q00532 whole entry): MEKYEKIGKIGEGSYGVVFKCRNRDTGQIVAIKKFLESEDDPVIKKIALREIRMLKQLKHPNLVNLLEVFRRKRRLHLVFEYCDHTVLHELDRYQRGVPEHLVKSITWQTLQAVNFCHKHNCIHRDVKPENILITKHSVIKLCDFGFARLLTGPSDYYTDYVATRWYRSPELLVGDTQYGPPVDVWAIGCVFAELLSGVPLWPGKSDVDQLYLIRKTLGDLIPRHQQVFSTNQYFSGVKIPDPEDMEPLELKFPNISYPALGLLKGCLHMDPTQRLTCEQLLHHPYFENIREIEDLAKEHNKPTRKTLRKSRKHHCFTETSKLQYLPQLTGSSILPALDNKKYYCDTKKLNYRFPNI
The target in data set [9] is kinases (KINOMEscan panel) (Homo sapiens, UniProt P49841). The settings on record: Published KINOMEscan; ref original PKIS2 published data; cited from earlier work.
Chain of kinases (KINOMEscan panel) (Homo sapiens, UniProt P49841) (P49841 whole entry): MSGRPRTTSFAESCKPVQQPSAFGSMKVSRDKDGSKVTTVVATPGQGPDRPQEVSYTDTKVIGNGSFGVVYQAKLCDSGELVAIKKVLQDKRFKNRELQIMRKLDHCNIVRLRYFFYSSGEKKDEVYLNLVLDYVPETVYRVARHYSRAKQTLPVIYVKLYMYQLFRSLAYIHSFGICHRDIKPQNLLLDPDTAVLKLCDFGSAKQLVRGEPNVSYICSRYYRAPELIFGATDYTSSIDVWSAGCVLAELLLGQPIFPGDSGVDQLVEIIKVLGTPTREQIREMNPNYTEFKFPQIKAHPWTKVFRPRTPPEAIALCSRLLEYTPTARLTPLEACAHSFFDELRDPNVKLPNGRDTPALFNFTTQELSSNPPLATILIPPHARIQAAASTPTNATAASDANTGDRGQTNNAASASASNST
For data set [10], the target named is kinases (KINOMEscan panel) (Homo sapiens, UniProt P07949). The settings on record: kinase RET; Published KINOMEscan; ref original PKIS2 published data; cited from earlier work.
The target of data set [11] is kinases (KINOMEscan panel) (Homo sapiens, UniProt Q96RR4). The settings on record: CAMKK2; Published KINOMEscan; ref original PKIS2 published data; cited from earlier work.
Chain of kinases (KINOMEscan panel) (Homo sapiens, UniProt Q96RR4) (Q96RR4 whole entry): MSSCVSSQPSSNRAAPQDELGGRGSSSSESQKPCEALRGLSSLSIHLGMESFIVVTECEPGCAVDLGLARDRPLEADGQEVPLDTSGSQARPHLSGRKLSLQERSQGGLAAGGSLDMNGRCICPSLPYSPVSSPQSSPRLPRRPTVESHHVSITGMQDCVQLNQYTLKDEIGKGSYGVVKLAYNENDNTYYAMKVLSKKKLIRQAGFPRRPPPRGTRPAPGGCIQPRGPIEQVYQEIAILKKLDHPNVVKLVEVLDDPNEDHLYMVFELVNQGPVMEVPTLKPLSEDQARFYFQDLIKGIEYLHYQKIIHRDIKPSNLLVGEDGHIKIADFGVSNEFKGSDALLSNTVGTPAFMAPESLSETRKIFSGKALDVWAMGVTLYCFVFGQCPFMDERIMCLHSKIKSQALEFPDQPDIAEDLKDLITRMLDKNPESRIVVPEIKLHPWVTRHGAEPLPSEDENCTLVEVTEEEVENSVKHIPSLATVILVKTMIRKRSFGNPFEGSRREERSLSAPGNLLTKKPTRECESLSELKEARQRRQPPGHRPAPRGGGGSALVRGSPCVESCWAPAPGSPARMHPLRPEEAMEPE

SMILES strings stand for the structures.

Consider `Cc1cccc(-c2nc(Nc3ccncc3)c3ccccc3n2)n1` [NK215], for which, in [1], the “KINOMEscan PKN2” value is 0. Moreover, the “KINOMEscan IGF1R” value in [2] is reported as 0. Moreover, the “KINOMEscan SBK1” value in [3] was 0. The “KINOMEscan COQ8A” value in data set [4] was 27. Further, the “KINOMEscan PKMYT1” value in [5] is given as 0. In data set [6], the “KINOMEscan HIPK4” value is reported as 19. Also, in data set [7], the “KINOMEscan INSRR” value is 0. The “KINOMEscan CDKL1” value in data set [8] is 47. Also, the “KINOMEscan GSK3B” value in data set [9] is on record as 0. Also, in data set [10], the “KINOMEscan RET” value is recorded as 9. Besides, the “KINOMEscan CAMKK2” value in data set [11] is 7.
